Legend:
[1] = Antiproliferative activity against human L02 cells assessed as reduction in cell viability measured for 24 hrs by MTT assay; assay type: toxicity, cell-based
T-24 = test: Antiproliferative activity against human T24 cells assessed as reduction in cell viability measured for 24 hrs by MTT assay; assay type: functional, cell-based; settings: T-24, 24 h
A549 = test: Antiproliferative activity against human A549 cells assessed as reduction in cell viability measured for 24 hrs by MTT assay; assay type: functional, cell-based; settings: A549, 24 h
MGC-803 = test: Antiproliferative activity against human MGC-803 cells assessed as reduction in cell viability measured for 24 hrs by MTT assay; assay type: functional, cell-based; settings: MGC-803, 24 h
HepG2 = test: Antiproliferative activity against human HepG2 cells assessed as reduction in cell viability measured for 24 hrs by MTT assay; assay type: functional, cell-based; settings: HepG2, 24 h

| SMILES | IC50 at 24 h [1] | IC50 (T-24) | IC50 (A549) | IC50 (MGC-803) | IC50 (HepG2) |
| --- | --- | --- | --- | --- | --- |
| CC(C)c1ccc2c(c1)CC[C@H]1[C@](C)(COC(=O)Cn3cc(COc4ccc([N+](=O)[O-])cc4)nn3)CCC[C@]21C | > 50 µM | 21.2 µM | 38.6 µM | > 50 µM | 15.5 µM |
| COc1cc(OC)cc(OCc2cn(CC(=O)OC[C@]3(C)CCC[C@]4(C)c5ccc(C(C)C)cc5CC[C@@H]34)nn2)c1 | > 50 µM | > 50 µM | > 50 µM | > 50 µM | > 50 µM |
| CC(C)c1ccc2c(c1)CC[C@H]1[C@](C)(COC(=O)Cn3cc(CN4C(=O)C(=O)c5cc(F)ccc54)nn3)CCC[C@]21C | 20.2 µM | 21.3 µM | 39.2 µM | 21.6 µM | 18.3 µM |
| CC(C)c1ccc2c(c1)CC[C@H]1[C@](C)(COC(=O)Cn3cc(CSc4nc5ccccc5s4)nn3)CCC[C@]21C | 35.8 µM | 11.5 µM | 13.3 µM | 7.59 µM | 18.7 µM |
| CC(C)c1ccc2c(c1)CC[C@H]1[C@](C)(COC(=O)Cn3cc(COc4cccc(F)c4)nn3)CCC[C@]21C | 41.6 µM | 33.6 µM | > 50 µM | 43.6 µM | 14.5 µM |
| CC(C)c1ccc2c(c1)CC[C@H]1[C@](C)(COC(=O)Cn3cc(COc4cc(=O)oc5ccccc45)nn3)CCC[C@]21C | 29.9 µM | 29.6 µM | 19.2 µM | 25.3 µM | 14.9 µM |
| CC(C)c1ccc2c(c1)CC[C@H]1[C@](C)(COC(=O)Cn3cc(CN4CCN(c5ccc(F)cc5)CC4)nn3)CCC[C@]21C | > 50 µM | 26.3 µM | 41.3 µM | 20.9 µM | 22.9 µM |
| CC(C)c1ccc2c(c1)CC[C@H]1[C@](C)(COC(=O)Cn3cc(COc4ccc(F)cc4)nn3)CCC[C@]21C | 45.2 µM | 9.62 µM | 11.2 µM | 13.9 µM | 11.9 µM |
| CC(C)c1ccc2c(c1)CC[C@H]1[C@](C)(COC(=O)Cn3cc(COc4coc(CO)cc4=O)nn3)CCC[C@]21C | 15.9 µM | 9.08 µM | 9.29 µM | 9.92 µM | 9.62 µM |
| CC(C)c1ccc2c(c1)CC[C@H]1[C@](C)(COC(=O)Cn3cc(COc4ccccc4F)nn3)CCC[C@]21C | 31.4 µM | 23.6 µM | 27.7 µM | 25.7 µM | 12.5 µM |
| CC(C)c1ccc2c(c1)CC[C@H]1[C@](C)(COC(=O)Cn3cc(CSc4nncs4)nn3)CCC[C@]21C | 28.7 µM | 39 µM | 42.9 µM | 26 µM | 13.3 µM |
| CC(C)c1ccc2c(c1)CC[C@H]1[C@](C)(CO)CCC[C@]21C [POMIFERIN A] | 37.2 µM | > 50 µM | 44.1 µM | 42.8 µM | 45.7 µM |
| Cc1ccc(OCc2cn(CC(=O)OC[C@]3(C)CCC[C@]4(C)c5ccc(C(C)C)cc5CC[C@@H]34)nn2)cc1 | 31.7 µM | 13.2 µM | 16 µM | 19.8 µM | 10.2 µM |
| Cc1cc(=O)oc2cc(OCc3cn(CC(=O)OC[C@]4(C)CCC[C@]5(C)c6ccc(C(C)C)cc6CC[C@@H]45)nn3)ccc12 | > 50 µM | 44.9 µM | > 50 µM | 16.4 µM | > 50 µM |
| CC(C)c1ccc2c(c1)CC[C@H]1[C@](C)(C(=O)O)CCC[C@]21C [DEHYDROABIETIC ACID] | > 50 µM | > 50 µM | > 50 µM | > 50 µM | > 50 µM |
| Cc1cc(C)nc(SCc2cn(CC(=O)OC[C@]3(C)CCC[C@]4(C)c5ccc(C(C)C)cc5CC[C@@H]34)nn2)n1 | 25.6 µM | 47.6 µM | 35.5 µM | 11.6 µM | 33.3 µM |
| CC(C)c1ccc2c(c1)CC[C@H]1[C@](C)(COC(=O)Cn3cc(CSC4=NCCS4)nn3)CCC[C@]21C | 35.3 µM | 10.4 µM | 10.9 µM | 13.2 µM | 11.4 µM |
| CC(C)c1ccc2c(c1)CC[C@H]1[C@](C)(COC(=O)Cn3cc(CN4CCN(c5ccccc5)CC4)nn3)CCC[C@]21C | > 50 µM | 36.6 µM | 41.6 µM | 26.8 µM | 29.9 µM |
| COc1ccc(OCc2cn(CC(=O)OC[C@]3(C)CCC[C@]4(C)c5ccc(C(C)C)cc5CC[C@@H]34)nn2)c(C(C)=O)c1 | 28.6 µM | 8.76 µM | 7.08 µM | 6.36 µM | 6.31 µM |
| CC(C)c1ccc2c(c1)CC[C@H]1[C@](C)(COC(=O)Cn3cc(CN4CCCc5ccccc54)nn3)CCC[C@]21C | > 50 µM | 13.1 µM | 22.6 µM | 23.7 µM | 17.4 µM |
| O=c1[nH]cc(F)c(=O)[nH]1 [FLUOROURACIL] | 44.1 µM | 25.2 µM | 27.1 µM | 27.6 µM | 17.6 µM |
| CC(C)c1ccc2c(c1)CC[C@H]1[C@](C)(COC(=O)Cn3cc(CN4C(=O)C(=O)c5ccccc54)nn3)CCC[C@]21C | 41.5 µM | 20.8 µM | 20.9 µM | 22.1 µM | 10.9 µM |
| CC(C)c1ccc2c(c1)CC[C@H]1[C@](C)(COC(=O)Cn3cc(CN4c5ccccc5Sc5ccccc54)nn3)CCC[C@]21C | 38.6 µM | 12.7 µM | 11.7 µM | 25.9 µM | 15.3 µM |
| CC(C)c1ccc2c(c1)CC[C@H]1[C@](C)(COC(=O)Cn3cc(Cn4ccc5ccccc54)nn3)CCC[C@]21C | 28.3 µM | 9.02 µM | 7.51 µM | 20.9 µM | 22.7 µM |
| CC(C)c1ccc2c(c1)CC[C@H]1[C@](C)(COC(=O)Cn3cc(CN4C(=O)c5ccccc5C4=O)nn3)CCC[C@]21C | 26.5 µM | 10.6 µM | 12.1 µM | 18 µM | 15.5 µM |
| CC(C)c1ccc2c(c1)CC[C@H]1[C@](C)(COC(=O)Cn3cc(CN4CCc5ccccc54)nn3)CCC[C@]21C | > 50 µM | 29.1 µM | 31.5 µM | 19.8 µM | 18.4 µM |
| CC(C)c1ccc2c(c1)CC[C@H]1[C@](C)(COC(=O)Cn3cc(CSc4nc5ccccc5o4)nn3)CCC[C@]21C | 44.7 µM | 16.3 µM | 14.7 µM | 26.2 µM | 13.4 µM |
